In PubChem BioAssay (NCI):
Several values for one entry are separate records, joined by “and”; a condition that tells them apart may be missing. Equal entries are not always repeated.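 Five concentrations, 48 hours, 96-well plates. Here, GI50 denotes the concentration required for 50% inhibition of growth. Definition used: TGI = concentration required for complete inhibition of growth.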

Experiments:
Assay in all cases: NCI anticancer screen, dose series, 48 h
UACC-62 melanoma = test system: UACC-62 melanoma
UO-31 renal = test system: UO-31 renal
TK-10 renal = test system: TK-10 renal
MALME-3M melanoma = test system: MALME-3M melanoma
A549 NSCLC = test system: A549 NSCLC
PC-3 prostate = test system: PC-3 prostate
HS 578T breast = test system: HS 578T breast
OVCAR-3 ovarian = test system: OVCAR-3 ovarian
KM12 colon = test system: KM12 colon
MDA-MB-435 = test system: MDA-MB-435

SMILES	GI50 (UACC-62 melanoma)	TGI (UACC-62 melanoma)	GI50 (UO-31 renal)	TGI (UO-31 renal)	GI50 (TK-10 renal)	TGI (TK-10 renal)	TGI (MALME-3M melanoma)	TGI (A549 NSCLC)	GI50 (PC-3 prostate)	TGI (PC-3 prostate)	GI50 (HS 578T breast)	TGI (HS 578T breast)	GI50 (OVCAR-3 ovarian)	TGI (OVCAR-3 ovarian)	GI50 (KM12 colon)	TGI (KM12 colon)	GI50 (MDA-MB-435)	TGI (MDA-MB-435)	GI50 (MALME-3M melanoma)	GI50 (A549 NSCLC)
COc1cc(O)c2c(c1)C(=O)c1cc3c(c(O)c1C2=O)C(OC1OC(C)C(O)C(O)C1OC)C(OC)C(C)(O)C3=O (stereo unspecified)	1.68 µM	3.16 µM and 4.1 µM	1.87 µM	12.2 µM and 7.13 µM	4.29 µM	61.4 µM	2.54 µM and 2.65 µM	12 µM	2.57 µM	12.3 µM	3.34 µM	19.5 µM	1.38 µM	5.83 µM and 2.04 µM	3.11 µM and 2.33 µM	17.9 µM and 7.92 µM				
C[C@H](CCCNCCCNCCCN)[C@H]1CC[C@H]2[C@@H]3[C@H](OCCCN)C[C@H]4C[C@H](OCCCN)CC[C@]4(C)[C@H]3C[C@H](OCCCN)[C@]12C	0.871 µM	13.3 µM	0.913 µM	> 58.2 µM	2.18 µM	51.6 µM	26 µM	18.3 µM	18.3 µM	> 100 µM	0.918 µM	12.5 µM	14.6 µM	> 62.5 µM	0.355 µM	6.05 µM	0.34 µM	1.14 µM	4.27 µM	2.08 µM
O=c1c2c3c(sc2nc(N/N=C/c2ccc(Br)cc2)n1Cc1ccccc1)CCCC3	> 100 µM	> 100 µM	86.6 µM	> 100 µM	39.9 µM	> 100 µM	> 100 µM	> 100 µM	6.64 µM	> 100 µM	> 100 µM	> 100 µM	32.5 µM	> 100 µM	> 100 µM	> 100 µM	44.1 µM	> 100 µM	42.7 µM	46.2 µM
COC1CC(NC(=O)C(F)(F)F)C(OC(C)=O)C(C)O1 (stereo unspecified)		> 100 µM		> 100 µM		> 100 µM	> 100 µM	> 100 µM		> 100 µM		> 100 µM		> 100 µM		> 100 µM		> 100 µM		
O=C(NN=C1CCCCC1)c1[nH]c2ccc(F)cc2c1-c1ccccc1	38.6 µM	> 100 µM	42.6 µM	> 100 µM	91 µM	> 100 µM	> 100 µM	> 100 µM	52.1 µM	> 100 µM	48.3 µM	> 100 µM	21.8 µM	> 100 µM	44.7 µM	> 100 µM	35.3 µM	> 100 µM	> 100 µM	42.9 µM
CC(=O)Oc1cc2c(OC(C)=O)c(-c3c(C)cc4c(C(C)C)c(OC(C)=O)c(OC(C)=O)cc4c3OC(C)=O)c(C)cc2c(C(C)C)c1OC(C)=O	1.03 µM and 4.38 µM and 5.54 µM	2.2 µM and 8.65 µM and 11.7 µM	5.73 µM and 5.67 µM and 11.8 µM	13.3 µM and 11.9 µM and 33.8 µM	7.37 µM and 5.6 µM and 16.2 µM	21.9 µM and 17.4 µM and > 42.8 µM	13.8 µM and 13.7 µM and 23.7 µM	30.7 µM and 9.92 µM and 22.2 µM	5.48 µM and 5.87 µM and 9.87 µM	10.9 µM and 12.1 µM and 23.2 µM	18.7 µM and 20.1 µM and 8.85 µM	49.8 µM and 55.2 µM and 21.6 µM	4.6 µM and 6.15 µM and 8.52 µM	13.1 µM and 11.5 µM and 21 µM	4.83 µM and 5.02 µM and 9.12 µM	10.6 µM and 10.2 µM and 21.3 µM	8.13 µM and 6.8 µM and 10.1 µM	26.8 µM and 14.1 µM and 22.7 µM	5.49 µM and 5.36 µM and 9.03 µM	14.7 µM and 5.12 µM and 9.61 µM
O=c1c2ccccc2c2ccccc2c(=O)n1Cc1ccc2c(c1)OCO2		> 100 µM		> 100 µM		> 100 µM	> 100 µM	> 100 µM		> 100 µM		> 100 µM		> 100 µM		> 100 µM		55.7 µM		
COc1cnc2c(c1)C(=O)c1c-2n(CCCNC(C)C)c(=O)c2cc(F)ccc12	0.271 µM	1.27 µM	0.0801 µM	0.34 µM	0.178 µM	0.623 µM	0.937 µM	0.239 µM	0.281 µM	2.55 µM	0.754 µM	5.22 µM	0.19 µM	1.03 µM	0.165 µM	0.851 µM	0.309 µM	1.48 µM	0.197 µM	0.0718 µM
Cc1cc2c(c3oc(C4(C)OC4C4OC4C)cc(=O)c13)C(=O)c1c(O)c(C3CC(C)(N(C)C)C(O)C(C)O3)cc(C3CC(N(C)C)C(O)C(C)O3)c1C2=O (stereo unspecified)		0.00016 µM and 0.000228 µM	0.00638 µM	0.0143 µM and 0.00225 µM	0.00027 µM	0.0116 µM and 0.0501 µM		0.00351 µM and 0.0142 µM and 0.0177 µM			0.00158 µM	0.00405 µM and 0.00187 µM			0.000894 µM and 0.000134 µM	0.0419 µM and 0.00486 µM	0.000285 µM	0.000256 µM and 0.00129 µM		
O=C(NO)c1ccc(Cn2c(=O)n(-c3ccccc3F)c(=O)c3ccccc32)cc1	1.24 µM	3.02 µM	1.83 µM	4.75 µM	1.43 µM	5.16 µM	3.16 µM	7.83 µM	1.7 µM	4.31 µM	1.9 µM	11.9 µM	2.15 µM	6.41 µM			1.55 µM	3.26 µM	0.892 µM	2.74 µM
CCCCCCCCCCCCOC1C(C(CC(=O)N2CCN(c3cccc(C(F)(F)F)c3)CC2)NS(=O)(=O)c2cc(Cl)cc(Cl)c2)OC2OC(C)(C)OC21 (stereo unspecified)	> 100 µM	> 100 µM	> 100 µM	> 100 µM	> 100 µM	> 100 µM	> 100 µM	> 100 µM	> 100 µM	> 100 µM	> 100 µM	> 100 µM	> 100 µM	> 100 µM	> 100 µM	> 100 µM	> 100 µM	> 100 µM	> 100 µM	> 100 µM
Cc1cc(O)cc(C)c1/C=C/c1cncc(-c2nn[nH]n2)c1	> 25 µM	> 25 µM	> 25 µM	> 25 µM	> 25 µM	> 25 µM	> 25 µM	> 25 µM	> 25 µM	> 25 µM	> 25 µM	> 25 µM	> 25 µM	> 25 µM	> 25 µM	> 25 µM	> 25 µM	> 25 µM	> 25 µM	> 25 µM
COc1ccc2nc3ccccc3c(NCCCN(C)CCCl)c2c1		2.05 µM		2.67 µM		4.08 µM	1.55 µM	2.42 µM		1.6 µM		3.85 µM		2.07 µM		2.06 µM		1.54 µM		
